# “Also recorded” adds a separate entry of the source. Read-outs that look alike come from different tables or passages of the source. Square brackets hold non-standard residues; d marks the D form. Ends that are not written are not given here. Dhb = C/C=C(\N)C(=O)O; Dha = C=C(N)C(=O)O
# How the values were obtained:
# [1] = system: M. luteus 4698; assay type: cell-based, Micrococcus luteus
# Procedure: (§1) A selection of the variants produced in Example 1 above were tested further for activity against a range of bacteria. Minimum inhibitory concentrations (MICs) for all organisms with the exception of Streptococcus pneumoniae were determined by two-fold serial antibiotic dilutions in Mueller-Hinton broth (MHB) supplemented with 50 μg/ml calcium as calcium chloride dihydrate. Minimum inhibitory concentrations (MICs) for S. pneumoniae were determined by two-fold serial antibiotic dilutions in Brain Heart Infusion (BHI) broth supplemented with 50 μg/ml calcium as calcium chloride dihydrate. Antimicrobial agent stock solutions were prepared and stored according to NCCLS standard M7-A6.
# (§2) Actively growing broth cultures were diluted to contain […] by adjusting to an absorbance of 0.2-0.3 at 600 nm, equivalent to the McFarland 0.5 standard. They were then diluted a further 1:100 in broth. The assays were performed in duplicate in sterile 96-well microtitre plates in a total volume of 200 μl (160 μl broth, 20 μl antibiotic, 20 μl inoculum) in a concentration range from 64 μg/ml to 0.06 μg/ml. The 12th well of the microtitre plate contained no antimicrobial agent. Vancomycin was used as a reference antibiotic for quality control. Plates were incubated aerobically, shaking, for 18-20 hours at 37° C. with the MIC defined as the lowest concentration of drug that produced no visible growth.
# [2] = system: S. pyogenes 13608; assay type: cell-based, Streptococcus pyogenes
# Procedure: (§3) MIC tests were performed with some of the variants of Example 2 on a range of other organisms. The results are shown in Tables 9 and 10 (figures in μg/ml): […]
# [3] = system: S. pyogenes 16205; assay type: cell-based, Streptococcus pyogenes
# Procedure: as §3
# [4] = system: S. aureus CS; assay type: cell-based, Staphylococcus aureus
# Procedure: as §3
# [5] = system: S. aureus SG511; assay type: cell-based, Staphylococcus aureus
# Procedure: as §3
# [6] = system: S. aureus 1012-13 MRSA; assay type: cell-based, Staphylococcus aureus
# Procedure: as §3
# [7] = system: S. aureus COL MRSA; assay type: cell-based, Staphylococcus aureus
# Procedure: as §3
# [8] = system: E. faecium 4147 VRE; assay type: cell-based, Enterococcus faecium
# Procedure: as §3
# [9] = system: E. faecium 4147-1; assay type: cell-based, Enterococcus faecium
# Procedure: as §3
# [10] = system: S. aureus SH1000; assay type: cell-based, Staphylococcus aureus
# Procedure: as §1, §2
# [11] = system: S. pneumoniae R6; assay type: cell-based, Streptococcus pneumoniae; details: Table 8B; BHI broth + 50 μg/ml calcium; duplicate
# Procedure: as §1, §2
# [12] = system: M. luteus; details: data of Szekat et al., cited from earlier work; for fold greater MIC measured against M. luteus: compared with mersacidin
# [13] = system: E. faecium 19579; assay: MIC, two-fold serial dilution in broth; assay type: cell-based, Enterococcus faecium; details: duplicate
# Procedure: as §1, §2
# [14] = system: E. faecium 7131121; assay: MIC, two-fold serial dilution in broth; assay type: cell-based, Enterococcus faecium; details: duplicate
# Procedure: as §1, §2
# [15] = system: E. faecalis 29212; assay: MIC, two-fold serial dilution in broth; assay type: cell-based, Enterococcus faecalis; details: duplicate
# Procedure: as §1, §2
# [16] = system: E. faecium BM4147; assay: MIC test, further organisms; assay type: cell-based, Enterococcus faecium; details: Table 10; duplicate
# Procedure: as §3
# [17] = system: S. aureus Mu50; assay: MIC test, further organisms; assay type: cell-based, Staphylococcus aureus; details: Table 10; duplicate
# Procedure: as §3
# [18] = system: S. aureus LT 1012-13; assay: MIC test, further organisms; assay type: cell-based, Staphylococcus aureus; details: Table 10; duplicate
# Procedure: as §3
# [19] = system: S. aureus COL; assay type: cell-based, Staphylococcus aureus; details: Table 10; duplicate
# Procedure: as §3
# [20] = system: S. aureus R33; assay type: cell-based, Staphylococcus aureus; details: Table 8A; MHB + 50 μg/ml calcium; duplicate
# Procedure: as §1, §2
# [21] = Table 8B, MHB + 50 μg/ml calcium, duplicate
# [22] = Table 8A, MHB + 50 μg/ml calcium, duplicate
# [23] = Table 8A, MHB + 50 μg/ml calcium
compound,measurement,setting,value
CC[C@H](C)[C@@H]1NC(=O)[C@@H]2CSC(C)C(NC(=O)[C@@H]3CSC(C)C(NC(=O)[C@H](Cc4ccccc4)NC(=O)C4NC(=O)[C@@H](N)CSC4C)C(=O)N[C@@H](CC(C)C)C(=O)N4CCC[C@H]4C(=O)NCC(=O)NCC(=O)NCC(=O)NCC(=O)N[C@@H](C(C)C)C(=O)N3)C(=O)N[C@@H](CC(C)C)C(=O)NC(C(=O)N[C@@H](Cc3c[nH]cn3)C(=O)N[C@@H](CCC(=O)O)C(=O)N2)C(C)SC=CNC1=O (some centres unmarked) [Dha16H],MIC M. luteus 4698,[1]; 4698,4 µg/mL
same,MIC S. pyogenes 13608,[2],4 µg/mL
same,MIC S. pyogenes 16205,[3],4 µg/mL
same,MIC S. aureus CS,[4],64 µg/mL
same,MIC S. aureus SG511,[5],8 µg/mL
same,MIC S. aureus 1012-13 MRSA,[6],64 µg/mL
same,MIC S. aureus COL MRSA,[7],64 µg/mL
same,MIC E. faecium 4147 VRE,[8]; 4147 VRE,128 µg/mL
same,MIC E. faecium 4147-1,"[9]; Table 9, 16 h","128-16 h, μg/ml"
same,MIC E. faecium 4147-1,"[9]; Table 9, 23 h",256-23 h μg/ml
"G10Y: mersacidin variant (CTFTLPGGGYVCTLT[Dha]ECIC; thioether (positions not given here); not fully specified; UniProt P43683 49-68, looked up, variant G10Y)",MIC M. luteus 4698,[1]; [21],"<4, <4 μg/ml"
same,MIC S. aureus SH1000,[10]; [22],">64, >64 μg/ml"
same,MIC S. pneumoniae R6,[11],"<4, <4 μg/ml"
C=C1NC(=O)C2NC(=O)[C@H](CC(C)C)NC(=O)C(NC(=O)[C@@H]3CSC(C)C(NC(=O)[C@H](Cc4ccccc4)NC(=O)C4NC(=O)[C@@H](N)CSC4C)C(=O)N[C@@H](CC(C)C)C(=O)N[C@@H](C)C(=O)NCC(=O)NCC(=O)NCC(=O)NCC(=O)N[C@@H](C(C)C)C(=O)N3)C(C)SC[C@H](NC(=O)[C@H](CCC(=O)O)NC1=O)C(=O)N[C@@H]([C@@H](C)CC)C(=O)NC=CSC2C (some centres unmarked) [P6A],MIC M. luteus 4698,[1]; 4698,4 µg/mL
same,MIC S. pyogenes 13608,[2],4 µg/mL
same,MIC S. pyogenes 16205,[3],8 µg/mL
same,MIC S. aureus CS,[4],32 µg/mL
same,MIC S. aureus SG511,[5],8 µg/mL
same,MIC S. aureus 1012-13 MRSA,[6],32 µg/mL
same,MIC S. aureus COL MRSA,[7],64 µg/mL
same,MIC E. faecium 4147 VRE,"[8]; Table 9, 16 h","128-16 h, μg/ml"
same,MIC E. faecium 4147 VRE,"[8]; Table 9, 24 h",256-24 h μg/ml
same,MIC E. faecium 4147-1,[9]; 4147-1,256 µg/mL
"F3L: mersacidin variant produced by Szekat et al. (CTLTLPGGGGVCTLT[Dha]ECIC; thioether (positions not given here); not fully specified; UniProt P43683 49-68, looked up, variant F3L)",MIC against M. luteus,[12],12.5 µg/mL
same,antibacterial activity (in words),[12],weakly active
C=C1NC(=O)C2NC(=O)[C@H](CC(C)C)NC(=O)C(NC(=O)[C@@H]3CSC(C)C(NC(=O)[C@H](Cc4ccccc4)NC(=O)C4NC(=O)[C@@H](N)CSC4C)C(=O)N[C@@H](CC(C)C)C(=O)N4CCC[C@H]4C(=O)NCC(=O)NCC(=O)N[C@@H](CC(N)=O)C(=O)NCC(=O)N[C@@H](C(C)C)C(=O)N3)C(C)SC[C@H](NC(=O)[C@H](CCC(=O)O)NC1=O)C(=O)N[C@@H]([C@@H](C)CC)C(=O)NC=CSC2C (some centres unmarked) [G9N],MIC E. faecium 19579,[13]; [23],">64, >64 μg/ml"
same,MIC E. faecium 7131121,[14]; [23],">64, >64 μg/ml"
same,MIC S. aureus SH1000,[10]; [22],">64, >64 μg/ml"
same,MIC E. faecalis 29212,[15]; [23],">64, >64 μg/ml"
same,MIC S. pneumoniae R6,[11],">64, >64 μg/ml"
C=C1NC(=O)C2NC(=O)[C@H](CC(C)C)NC(=O)C(NC(=O)[C@@H]3CSC(C)C(NC(=O)[C@H](Cc4ccccc4)NC(=O)C4NC(=O)[C@@H](N)CSC4C)C(=O)N[C@@H](CC(C)C)C(=O)N4CCC[C@H]4C(=O)NCC(=O)N[C@@H](Cc4c[nH]cn4)C(=O)NCC(=O)NCC(=O)N[C@@H](C(C)C)C(=O)N3)C(C)SC[C@H](NC(=O)[C@H](CCC(=O)O)NC1=O)C(=O)N[C@@H]([C@@H](C)CC)C(=O)NC=CSC2C (some centres unmarked) [G8H],MIC E. faecium 19579,[13]; Table 11,">64, >64 μg/ml"
same,MIC E. faecium 7131121,[14]; Table 11,">64, >64 μg/ml"
same,MIC S. aureus SH1000,[10]; SH1000,"64, >64 μg/ml"
same,MIC E. faecalis 29212,[15]; Table 11,">64, >64 μg/ml"
"P6N: mersacidin variant (CTFTLNGGGGVCTLT[Dha]ECIC; thioether (positions not given here); not fully specified; UniProt P43683 49-68, looked up, variant P6N)",MIC E. faecium BM4147,[16],">32, >32 μg/ml"
same,MIC S. aureus Mu50,[17],">32, >32 μg/ml"
same,MIC S. aureus LT 1012-13,[18],">32, >32 μg/ml"
same,MIC S. aureus COL,[19],">32, >32 μg/ml"
"G8Q: mersacidin variant (CTFTLPGQGGVCTLT[Dha]ECIC; thioether (positions not given here); not fully specified; UniProt P43683 49-68, looked up, variant G8Q)",MIC E. faecium 19579,[13]; [23],">64, >64 μg/ml"
same,MIC E. faecium 7131121,[14]; [23],">64, >64 μg/ml"
same,MIC S. aureus SH1000,[10]; [22],">64, >64 μg/ml"
same,MIC E. faecalis 29212,[15]; [23],">64, >64 μg/ml"
"G7N: mersacidin variant (CTFTLPNGGGVCTLT[Dha]ECIC; thioether (positions not given here); not fully specified; UniProt P43683 49-68, looked up, variant G7N)",MIC M. luteus 4698,[1]; [21],"<4, <4 μg/ml"
same,MIC E. faecalis 29212,[15]; [23],">64, >64 μg/ml"
"G7A: mersacidin variant (CTFTLPAGGGVCTLT[Dha]ECIC; thioether (positions not given here); not fully specified; UniProt P43683 49-68, looked up, variant G7A)",MIC E. faecium 7131121,[14]; [23],">64, >64 μg/ml"
same,MIC S. aureus SH1000,[10]; [22],">64, >64 μg/ml"
same,MIC E. faecalis 29212,[15]; [23],">64, >64 μg/ml"
same,MIC S. pneumoniae R6,[11],">64, >64 μg/ml"
"S16I: mersacidin variant produced by Szekat et al. (CTFTLPGGGGVCTLTIECIC; thioether (positions not given here); not fully specified; UniProt P43683 49-68, looked up, variant S16I)",antibacterial activity (in words),[12],essentially inactive
same,fold greater MIC measured against M. luteus,[12],"about 1,000 fold"
"mersacidin E17A (CTFTLPGGGGVCTLT[Dha]ACIC; thioether (positions not given here); not fully specified; UniProt P43683 49-68, looked up, variant E17A) [mersacidin variant produced by Szekat et al]",antibacterial activity (in words),[12],essentially inactive; also recorded: no antibacterial activity
same,fold greater MIC measured against M. luteus,[12],"about 1,000 fold"
C=C1NC(=O)C2NC(=O)[C@H](CC(C)C)NC(=O)C(NC(=O)[C@@H]3CSC(C)C(NC(=O)[C@H](Cc4ccccc4)NC(=O)C4NC(=O)[C@@H](N)CSC4C)C(=O)N[C@@H](CC(C)C)C(=O)N4CCC[C@H]4C(=O)NCC(=O)NCC(=O)NCC(=O)N[C@@H](C)C(=O)N[C@@H](C(C)C)C(=O)N3)C(C)SC[C@H](NC(=O)[C@H](CCC(=O)O)NC1=O)C(=O)N[C@@H]([C@@H](C)CC)C(=O)NC=CSC2C (some centres unmarked) [G10A],MIC E. faecium 19579,[13]; [23],">64, >64 μg/ml"
same,MIC E. faecium 7131121,[14]; [23],">64, >64 μg/ml"
same,MIC S. aureus SH1000,[10]; [22],">64, >64 μg/ml"
same,MIC S. aureus R33,[20],">64, >64 μg/ml"
same,MIC E. faecalis 29212,[15]; [23],">64, >64 μg/ml"
"mersacidin L14I Dha16Dhb (CTFTLPGGGGVCTIT[Dhb]ECIC; thioether (positions not given here); not fully specified; UniProt P43683 49-68, looked up, variant L14I S16T) [mersacidin double variant]",MIC E. faecium 7131121,"[14]; Table 18, double variants",">64, >64 μg/ml"
same,MIC E. faecalis 29212,"[15]; Table 18, double variants",">64, >64 μg/ml"
